Results taken from ChEMBL document CHEMBL1201862, “PubChem BioAssay data set” (2004).
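These data come from cells grown in 96-well plates and exposed to compound for 48 hours at five concentrations. At the GI50, growth is halved.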 Activity calls are given as the source filed them. No stated cut-off is given here; in the data, active = GI50 up to about 1.1 µM and inactive = higher.

Experiments:
Assay in all cases: NCI-60 cell line screen, 48 h
SK-MEL-28 = tested on: SK-MEL-28
MOLT-4 = tested on: MOLT-4
BT-549 = tested on: BT-549
A498 = tested on: A498
HOP-92 = tested on: HOP-92
786-0 = tested on: 786-0
HT-29 = tested on: HT-29
EKVX = tested on: EKVX
NCI/ADR-RES = tested on: NCI/ADR-RES
MCF7 = tested on: MCF7
PC-3 = tested on: PC-3
SW-620 = tested on: SW-620
SNB-19 = tested on: SNB-19
NCI-H226 = tested on: NCI-H226
OVCAR-3 = tested on: OVCAR-3
A549 = tested on: A549
HCC 2998 = tested on: HCC 2998
DU-145 = tested on: DU-145
MDA-N = tested on: MDA-N
MDA-MB-231 = tested on: MDA-MB-231
UACC-257 = tested on: UACC-257
M14 = tested on: M14
SR = tested on: SR
IGROV-1 = tested on: IGROV-1
U-251 = tested on: U-251
K562 = tested on: K562
CCRF-CEM = tested on: CCRF-CEM
HL-60 = tested on: HL-60
HOP-62 = tested on: HOP-62
OVCAR-4 = tested on: OVCAR-4
MDA-MB-435 = tested on: MDA-MB-435
Malme-3M = tested on: Malme-3M
SK-MEL-5 = tested on: SK-MEL-5
ACHN = tested on: ACHN
SNB-75 = tested on: SNB-75
UO-31 = tested on: UO-31
RXF 393 = tested on: RXF 393
CAKI-1 = tested on: CAKI-1
SK-MEL-2 = tested on: SK-MEL-2
HCT-116 = tested on: HCT-116
LOX IMVI = tested on: LOX IMVI
UACC-62 = tested on: UACC-62
OVCAR-5 = tested on: OVCAR-5
NCI-H23 = tested on: NCI-H23
SF-539 = tested on: SF-539
RPMI-8226 = tested on: RPMI-8226
COLO 205 = tested on: COLO 205
SF-295 = tested on: SF-295
NCI-H460 = tested on: NCI-H460
OVCAR-8 = tested on: OVCAR-8
KM12 = tested on: KM12
NCI-H522 = tested on: NCI-H522
SN12C = tested on: SN12C
TK-10 = tested on: TK-10
Hs-578T = tested on: Hs-578T
SF-268 = tested on: SF-268
HCT-15 = tested on: HCT-15
SK-OV-3 = tested on: SK-OV-3
T47D = tested on: T47D

Question: With `COC1(OC)C(/C(N)=C\O)=NC(C)(C)N1O` as the compound, how does the GI50 (SK-MEL-28) read?
Answer: > 100 µM (inactive)

Question: And the GI50 (MOLT-4)?
Answer: 66.5 µM (inactive)

Question: And the GI50 (BT-549)?
Answer: > 100 µM (inactive)

Question: What about the GI50 (A498) of the same compound?
Answer: > 100 µM (inactive)

Question: What about the GI50 (HOP-92) of the same compound?
Answer: > 100 µM (inactive)

Question: What about the GI50 (786-0) of the same compound?
Answer: > 100 µM (inactive)

Question: And the GI50 (HT-29)?
Answer: > 100 µM (inactive)

Question: And the GI50 (EKVX)?
Answer: > 100 µM (inactive)

Question: What about the GI50 (NCI/ADR-RES) of the same compound?
Answer: > 100 µM (inactive)

Question: What about the GI50 (MCF7) of the same compound?
Answer: 74.6 µM (inactive)

Question: What about the GI50 (PC-3) of the same compound?
Answer: > 100 µM (inactive)

Question: What about the GI50 (SW-620) of the same compound?
Answer: > 100 µM (inactive)

Question: What about the GI50 (SNB-19) of the same compound?
Answer: > 100 µM (inactive)

Question: What about the GI50 (NCI-H226) of the same compound?
Answer: > 100 µM (inactive)

Question: What about the GI50 (OVCAR-3) of the same compound?
Answer: 29.9 µM (inactive)

Question: What about the GI50 (A549) of the same compound?
Answer: > 100 µM (inactive)

Question: And the GI50 (HCC 2998)?
Answer: > 100 µM (inactive)

Question: What about the GI50 (DU-145) of the same compound?
Answer: > 100 µM (inactive)

Question: What about the GI50 (MDA-N) of the same compound?
Answer: > 100 µM (inactive)

Question: What about the GI50 (MDA-MB-231) of the same compound?
Answer: > 100 µM (inactive)

Question: And the GI50 (UACC-257)?
Answer: > 100 µM (inactive)

Question: And the GI50 (M14)?
Answer: > 100 µM (inactive)

Question: And the GI50 (SR)?
Answer: > 100 µM (inactive)

Question: What about the GI50 (IGROV-1) of the same compound?
Answer: > 100 µM (inactive)

Question: And the GI50 (U-251)?
Answer: > 100 µM (inactive)

Question: What about the GI50 (K562) of the same compound?
Answer: > 100 µM (inactive)

Question: And the GI50 (CCRF-CEM)?
Answer: 37.1 µM (inactive)

Question: And the GI50 (HL-60)?
Answer: 20.4 µM (inactive)

Question: And the GI50 (HOP-62)?
Answer: > 100 µM (inactive)

Question: And the GI50 (OVCAR-4)?
Answer: > 100 µM (inactive)

Question: And the GI50 (MDA-MB-435)?
Answer: > 100 µM (inactive)

Question: What about the GI50 (Malme-3M) of the same compound?
Answer: > 100 µM (inactive)

Question: What about the GI50 (SK-MEL-5) of the same compound?
Answer: 71.6 µM (inactive)

Question: And the GI50 (ACHN)?
Answer: > 100 µM (inactive)

Question: What about the GI50 (SNB-75) of the same compound?
Answer: 66.2 µM (inactive)

Question: What about the GI50 (UO-31) of the same compound?
Answer: > 100 µM (inactive)

Question: What about the GI50 (RXF 393) of the same compound?
Answer: > 100 µM (inactive)

Question: And the GI50 (CAKI-1)?
Answer: > 100 µM (inactive)

Question: What about the GI50 (SK-MEL-2) of the same compound?
Answer: > 100 µM (inactive)

Question: And the GI50 (HCT-116)?
Answer: > 100 µM (inactive)

Question: What about the GI50 (LOX IMVI) of the same compound?
Answer: > 100 µM (inactive)

Question: What about the GI50 (UACC-62) of the same compound?
Answer: > 100 µM (inactive)

Question: What about the GI50 (OVCAR-5) of the same compound?
Answer: > 100 µM (inactive)

Question: And the GI50 (NCI-H23)?
Answer: > 100 µM (inactive)

Question: And the GI50 (SF-539)?
Answer: > 100 µM (inactive)

Question: What about the GI50 (RPMI-8226) of the same compound?
Answer: > 100 µM (inactive)

Question: And the GI50 (COLO 205)?
Answer: 57 µM (inactive)

Question: And the GI50 (SF-295)?
Answer: > 100 µM (inactive)

Question: And the GI50 (NCI-H460)?
Answer: > 100 µM (inactive)

Question: What about the GI50 (OVCAR-8) of the same compound?
Answer: > 100 µM (inactive)

Question: What about the GI50 (KM12) of the same compound?
Answer: > 100 µM (inactive)

Question: What about the GI50 (NCI-H522) of the same compound?
Answer: > 100 µM (inactive)

Question: And the GI50 (SN12C)?
Answer: > 100 µM (inactive)

Question: With `CC1CN=C(N(C(=O)Nc2ccc(F)c(Cl)c2)c2ccccc2)S1` (stereo not given) as the compound, how does the GI50 (SK-MEL-28) read?
Answer: 15.1 µM (inactive)

Question: What about the GI50 (MOLT-4) of the same compound?
Answer: 16.7 µM (inactive)

Question: What about the GI50 (A498) of the same compound?
Answer: 21.1 µM (inactive)

Question: What about the GI50 (HOP-92) of the same compound?
Answer: 20.3 µM (inactive)

Question: What about the GI50 (786-0) of the same compound?
Answer: 22.9 µM (inactive)

Question: What about the GI50 (HT-29) of the same compound?
Answer: 22.9 µM (inactive)

Question: And the GI50 (EKVX)?
Answer: 22 µM (inactive)

Question: What about the GI50 (NCI/ADR-RES) of the same compound?
Answer: 17.9 µM (inactive)

Question: And the GI50 (MCF7)?
Answer: 10.4 µM (inactive)

Question: What about the GI50 (PC-3) of the same compound?
Answer: 24.1 µM (inactive)

Question: What about the GI50 (SW-620) of the same compound?
Answer: 27.5 µM (inactive)

Question: What about the GI50 (SNB-19) of the same compound?
Answer: 43.2 µM (inactive)

Question: And the GI50 (OVCAR-3)?
Answer: 34.5 µM (inactive)

Question: And the GI50 (A549)?
Answer: 24.2 µM (inactive)

Question: What about the GI50 (TK-10) of the same compound?
Answer: 25.9 µM (inactive)

Question: What about the GI50 (DU-145) of the same compound?
Answer: 36.8 µM (inactive)

Question: And the GI50 (MDA-N)?
Answer: 18.9 µM (inactive)

Question: And the GI50 (MDA-MB-231)?
Answer: 17.7 µM (inactive)

Question: And the GI50 (UACC-257)?
Answer: 24.6 µM (inactive)

Question: And the GI50 (M14)?
Answer: 28.4 µM (inactive)

Question: What about the GI50 (Hs-578T) of the same compound?
Answer: 38.5 µM (inactive)

Question: And the GI50 (SR)?
Answer: > 10 µM (inactive)

Question: What about the GI50 (IGROV-1) of the same compound?
Answer: 27.8 µM (inactive)

Question: What about the GI50 (U-251) of the same compound?
Answer: 20.6 µM (inactive)

Question: What about the GI50 (K562) of the same compound?
Answer: 27 µM (inactive)

Question: And the GI50 (CCRF-CEM)?
Answer: 31.3 µM (inactive)

Question: And the GI50 (HL-60)?
Answer: > 10 µM (inactive)

Question: And the GI50 (HOP-62)?
Answer: 27.6 µM (inactive)

Question: What about the GI50 (OVCAR-4) of the same compound?
Answer: 48.3 µM (inactive)

Question: And the GI50 (Malme-3M)?
Answer: 30.3 µM (inactive)

Question: And the GI50 (SK-MEL-5)?
Answer: 16.4 µM (inactive)

Question: What about the GI50 (ACHN) of the same compound?
Answer: 25.5 µM (inactive)

Question: And the GI50 (SNB-75)?
Answer: 23.2 µM (inactive)

Question: And the GI50 (UO-31)?
Answer: 25.8 µM (inactive)

Question: And the GI50 (CAKI-1)?
Answer: 21 µM (inactive)

Question: What about the GI50 (SK-MEL-2) of the same compound?
Answer: 17.5 µM (inactive)

Question: What about the GI50 (HCT-116) of the same compound?
Answer: 21.5 µM (inactive)

Question: And the GI50 (LOX IMVI)?
Answer: 17.5 µM (inactive)

Question: What about the GI50 (OVCAR-5) of the same compound?
Answer: 28.2 µM (inactive)

Question: And the GI50 (NCI-H23)?
Answer: 19.2 µM (inactive)

Question: What about the GI50 (SF-539) of the same compound?
Answer: 41.1 µM (inactive)

Question: And the GI50 (RPMI-8226)?
Answer: 25.8 µM (inactive)

Question: And the GI50 (COLO 205)?
Answer: 19.3 µM (inactive)

Question: And the GI50 (SF-295)?
Answer: 31.3 µM (inactive)

Question: And the GI50 (NCI-H460)?
Answer: 25.4 µM (inactive)

Question: And the GI50 (OVCAR-8)?
Answer: 23.9 µM (inactive)

Question: And the GI50 (SF-268)?
Answer: 27.5 µM (inactive)

Question: What about the GI50 (KM12) of the same compound?
Answer: 26.5 µM (inactive)

Question: What about the GI50 (HCT-15) of the same compound?
Answer: 22.4 µM

Question: And the GI50 (SN12C)?
Answer: 17.2 µM (inactive)

Question: And the GI50 (SK-OV-3)?
Answer: 33.6 µM (inactive)

Question: And the GI50 (T47D)?
Answer: 16.8 µM (inactive)
